The source of these data is publication PMC9115719, “Spatial Expression Analysis of Odorant Binding Proteins in Both Sexes of the Aphid Parasitoid Aphidius gifuensis and Their Ligand Binding Properties” (Frontiers in Physiology, 2022).

Values joined by “and” are separate entries in the source; they are usually repeats but may differ in a detail not shown here. Identical values can stand only once. Like-named read-outs stand apart in the source and are kept apart here. Bounds are passed on as bounds.

For assay [1], the target named is T1, AgifOBP9 (Aphidius gifuensis, UniProt A0A3Q9EL79, L121S). In words: Fluorescence competitive binding assay (1-NPN displacement) with recombinant AgifOBP9. Conditions: for Ki: Tris-HCl pH 7.4, Ki = [IC50]/(1+[1-NPN]/K1-NPN), means ± SD, three replicates. The method, then:
(§1) Fluorescence intensity was recorded in a right angle configuration on a Lengguang 970CRT spectrofluorimeter (Shanghai Jingmi, China) at room temperature using a 1 cm light path fluorimeter quartz cuvette. A slit width of 10 nm was selected for both excitation and emission. The measured fluorescence intensities were corrected for both blank signals due to protein emission and scattered excitation light. The spectral data were processed using the software 970CRT 2.0l. Fluorescence binding experiments were conducted in […] Tris-HCl buffer, pH 7.4, at room temperature. The binding affinity for N-phenyl-1-naphthylamine (1-NPN) was determined by adding aliquots of a 1 mM stock solution of 1-NPN dissolved in spectrophotometric grade methanol into a 2 μM protein sample. The fluorescence of 1-NPN was excited at 337 nm, and emission was recorded between 350 and 500 nm. Spectra were recorded with a high-speed scan. All ligands used in competitive experiments were dissolved in spectrophotometric grade methanol. In competition assays, aliquots of the competing ligands were added into a 2 μM protein solution in the presence of a given concentration of 1-NPN. To estimate the binding affinities of each AgifOBP for a variety of different ligands, we monitored the decrease in 1-NPN fluorescence due to the ability of different odorants to displace 1-NPN and determined the Ki value for each compound. To determine the dissociation constants, the intensity values corresponding to the maximum fluorescence emissions were plotted against the cumulative 1-NPN concentration. The amount of bound ligand was calculated from the fluorescence intensity values by assuming that the protein was 100% active, with a stoichiometry of 1:1 protein: ligand at saturation. The curves were linearized using Scatchard plots. The value of K1-NPN was estimated on a direct plot by nonlinear regression with an equation corresponding to a single binding site using Prism 7 (GraphPad Software, Inc., United States), and the IC50 was defined as the concentration of a competitor that caused a 50% reduction in fluorescence intensity. The dissociation constants of the inhibitors (Ki) were calculated according to the formula Ki = [IC50]/(1+[1-NPN]/K1-NPN), in which [1-NPN] represents the free 1-NPN concentration and K1-NPN represents the dissociation constant for AgifOBPs/1-NPN ([Ban et al., 2003]; [Zhong et al., 2012]; [Sun et al., 2016]; [Fan et al., 2017]; [Qin et al., 2020]; [Wang et al., 2021b]). All fluorescence competitive binding assays were performed in three independent replicates, and Ki dates are present as means ± SD.
(§2) FIGURE 5 Expression and binding properties of AgifOBP7 and AgifOBP9 with candidate ligands. (A) Expression and purification of AgifOBP7, (B) Expression and purification of AgifOBP9. Line M: molecular weight PR 1910 (11–180 KDa) Marker, 11, 17, 25, 35, 48, 63, 75, 100, 135, 180 KDa; IN: Induced pET-28a (+)/AgifOBP7/9; Super: pET-28a (+)/AgifOBP7/9 Supernatant; IB: pET-28a (+)/AgifOBP7/9 Inclusion body; Pur: Purified pET-28a (+)/AgifOBP7/9 without His-tag. (C,D) Binding curves of AgifOBP7 and AgifOBP9 with N-phenyl-1-naphthylamine (1-NPN) in 50 mM Tris-HCl buffer (pH 7.4). (E,F) Competitive binding curves of AgifOBP7 and AgifOBP9 to components of aphid alarm pheromones ((E)-beta-farnesene, (-)-α-pinene, (-)-β-pinene, (+)-limonene, (E)-beta-farnesene derivative (CAU-II-11); aphid sexual pheromone (4aSR 7SR 7aRS)-nepetalactone, the volatiles of wheat green leaf (cis-3-hexen-1-ol) and aphid induced plant main volatiles (methyl salicylate, 6-methyl-5-hepten-2-one). A mixture of the recombinant protein and N-phenyl-1-naphthylamine (1-NPN) in 50 mM Tris-HCl buffer (pH 7.4) at the concentration of 2 μM was titrated with 1 mM solutions of each competing ligand to a final concentration range of 2–16 μM. Fluorescence values are presented as percent of the values in the absence of competitor. Date are the means ± SD of three independent experiments.

Assay [2] concerns the target T2, AgifOBP7 (Aphidius gifuensis, UniProt A0A3S9LWE5). In words: Fluorescence competitive binding assay (1-NPN displacement) with recombinant AgifOBP7. Conditions: for binding to AgifOBP7 in words: fluorescence competitive binding assay. As to the method:
as §1, §2

For assay [3], the target named is T2, AgifOBP7. Description: Binding of fluorescent probe 1-NPN to AgifOBP7. To be noted: 2 μM protein, 50 mM Tris-HCl pH 7.4; read-out: dissociation constant of AgifOBP7/1-NPN complex. The method, then: (§3) Fluorescence intensity was recorded in a right angle configuration on a Lengguang 970CRT spectrofluorimeter (Shanghai Jingmi, China) at room temperature using a 1 cm light path fluorimeter quartz cuvette. A slit width of 10 nm was selected for both excitation and emission. The measured fluorescence intensities were corrected for both blank signals due to protein emission and scattered excitation light. The spectral data were processed using the software 970CRT 2.0l. Fluorescence binding experiments were conducted in […] Tris-HCl buffer, pH 7.4, at room temperature. […] The fluorescence of 1-NPN was excited at 337 nm, and emission was recorded between 350 and 500 nm. Spectra were recorded with a high-speed scan. […] To estimate the binding affinities of each AgifOBP for a variety of different ligands, we monitored the decrease in 1-NPN fluorescence due to the ability of different odorants to displace 1-NPN and determined the Ki value for each compound. To determine the dissociation constants, the intensity values corresponding to the maximum fluorescence emissions were plotted against the cumulative 1-NPN concentration. The amount of bound ligand was calculated from the fluorescence intensity values by assuming that the protein was 100% active, with a stoichiometry of 1:1 protein: ligand at saturation. […]

Assay [4] has as its target T1, AgifOBP9. In words: Binding of fluorescent probe 1-NPN to AgifOBP9. To be noted: 2 μM protein, 50 mM Tris-HCl pH 7.4; read-out: dissociation constant of AgifOBP9/1-NPN complex. The method, then: as §3
Where [5] appears, read: displacement of 1-NPN, 2 μM protein, Tris-HCl pH 7.4, room temperature, read-out: OBP9 IC50.
[6] abbreviates: displacement of 1-NPN, 2 μM protein, read-out: OBP9 Ki.
Setting [7] is: displacement of 1-NPN, 2 μM protein, Tris-HCl pH 7.4, room temperature, read-out: OBP7 IC50.
[8] abbreviates: displacement of 1-NPN, 2 μM protein, Tris-HCl pH 7.4, Ki = [IC50]/(1+[1-NPN]/K1-NPN), means ± SD, three replicates, read-out: OBP7 Ki.
[9] abbreviates: OBP9 Ki, displacement of 1-NPN, 2 μM protein.

T1 sequence (A0A3Q9EL79 entry or part of it L121S): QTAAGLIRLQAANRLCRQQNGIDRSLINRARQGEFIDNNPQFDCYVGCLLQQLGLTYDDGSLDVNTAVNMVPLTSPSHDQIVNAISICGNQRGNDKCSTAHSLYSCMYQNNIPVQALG
T2 sequence (A0A3S9LWE5 entry or part of it): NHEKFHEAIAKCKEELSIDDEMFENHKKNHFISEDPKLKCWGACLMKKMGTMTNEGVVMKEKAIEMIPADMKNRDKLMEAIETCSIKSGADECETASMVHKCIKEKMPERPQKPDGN

The IC50 is the concentration that inhibits the measured activity by half. By Ki is commonly meant a measure of affinity in units of concentration, obtained from inhibition or displacement. Take `C=C(C)C1CC=C(C)CC1` (single isomer, unassigned; (+)) [(+)-Limonene]: the figures for the 50% inhibitory concentration (IC50) in assay [1] (setting [5]) and in assay [2] (setting [7]) were 12.8 ± 0.25 µM and > 30 µM, respectively. For the same molecule, the Ki in assay [1] (displacement of 1-NPN, 2 μM protein, listed as (+)-limonene, read-out: OBP9 Ki) is < 10 µM; in assay [1] (setting [6]) it was 3.32 ± 0.06 µM; in assay [2] (setting [8]), > 30 µM. Further, in assay [2], the “binding to AgifOBP7 in words” value is recorded as “not much”.

For `c1ccc(Nc2cccc3ccccc23)cc1` [1-NPN, N-phenyl-1-naphthylamine], the Kd in assay [3] worked out at 1.69 ± 0.27 µM; in assay [4], 0.69 ± 0.24 µM.

As to `CC(=O)CCC=C(C)C` [6-Methyl-5-hepten-2-one], the IC50 in assay [1] was 22.3 ± 3.38 µM. The Ki in assay [1] (setting [9]) is < 10 µM and 5.76 µM. In assay [2], the IC50 was > 30 µM, the Ki is > 30 µM and the “binding to AgifOBP7 in words” value is recorded as “not much”.

Take `CC1=COC(=O)[C@H]2[C@@H]1CC[C@@H]2C` [(4aSR 7SR 7aRS)-Nepetalactone]: the IC50 in assay [1] (setting [5]) is 9.03 ± 0.31 µM; in assay [2] (setting [7]), > 30 µM. The Ki in assay [1] (displacement of 1-NPN, 2 μM protein, listed as (4aSR 7SR 7aRS)-nepetalactone, read-out: OBP9 Ki) is < 10 µM; in assay [1] (setting [6]), 2.33 ± 0.08 µM; in assay [2] (setting [8]) it was 16.1 ± 3.49 µM.

On to `CC1=CCC2CC1C2(C)C` (stereo not drawn) [(-)-α-Pinene], for which the IC50 in assay [1] (setting [5]) was 24.1 ± 3.42 µM; in assay [2] (setting [7]), > 30 µM. In addition, the Ki in assay [1] (displacement of 1-NPN, 2 μM protein, listed as (-)-α-pinene, read-out: OBP9 Ki) was < 10 µM; in assay [1] (setting [6]), 6.22 ± 0.88 µM; in assay [2] (setting [8]), > 30 µM. Further, in assay [2], the “binding to AgifOBP7 in words” value was “not much”.

For the molecule `C=C1CCC2CC1C2(C)C` (stereo not drawn) [(-)-β-Pinene], the IC50 in assay [1] (setting [5]) was 11.9 ± 1.27 µM; in assay [2] (setting [7]), > 30 µM. Moreover, the inhibitory constant (Ki) is < 10 µM in assay [1] (displacement of 1-NPN, 2 μM protein, listed as (-)-β-pinene, read-out: OBP9 Ki); 3.06 ± 0.33 µM in assay [1] (setting [6]); > 30 µM in assay [2] (setting [8]). The “binding to AgifOBP7 in words” value in assay [2] is reported as “not much”.

Turning to `C=CC(=C)CC/C=C(\C)CCC=C(C)C` [(E)-β-Farnesene], the IC50 in assay [1] (setting [5]) is 17.8 ± 1.69 µM; in assay [2] (setting [7]) it was > 30 µM. For the same molecule, the Ki in assay [1] (displacement of 1-NPN, 2 μM protein, listed as EBF, read-out: OBP9 Ki) was < 10 µM; in assay [1] (setting [6]), 4.6 ± 0.43 µM; in assay [2] (setting [8]) it was 20.3 ± 1.99 µM.

Regarding `COc1cccc(C(=O)OC/C=C(\C)CCC=C(C)C)c1O` [CAU-II-11, (E)-3,7-dimethylocta-2,6-dien-1-yl-2-hydroxy-3-methoxybenzoate], the IC50 in assay [1] was determined as 4.15 ± 0.33 µM; in assay [2], 18.6 ± 1.73 µM. Besides, the Ki in assay [1] (setting [9]) amounted to 1.07 ± 0.08 µM; in assay [2], 8.5 ± 0.73 µM.

For the molecule `COC(=O)c1ccccc1O` [Methyl salicylate], the values for the IC50 in assay [1] and in assay [2] were 13.3 ± 2.99 µM and > 30 µM, respectively. The Ki was < 10 µM and 3.43 µM in assay [1] (setting [9]); > 30 µM in assay [2]. Also, in assay [2], the “binding to AgifOBP7 in words” value is on record as “not much”.

For `CC/C=C\CCO` [cis-3-Hexenol], the IC50 is 17 ± 0.33 µM in assay [1] and > 30 µM in assay [2]. In addition, the Ki is < 10 µM and 4.39 µM in assay [1] (setting [9]); > 30 µM in assay [2]. Further, the “binding to AgifOBP7 in words” value in assay [2] was “not much”.
